Assay results published in PubChem BioAssay (NCI).
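96-well plates; 48 h exposure; 5 concentrations. Endpoints by linear interpolation between flanking doses. Not reached: highest tested concentration assigned. The concentration for 50% growth inhibition is given as GI50. TGI marks complete inhibition of growth.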

Columns and labels:
Assay in all cases: growth of human tumour cells (NCI), 48 h
A498 renal = test system: A498 renal
RXF 393 renal = test system: RXF 393 renal
UACC-62 melanoma = test system: UACC-62 melanoma
M14 melanoma = test system: M14 melanoma
ACHN renal = test system: ACHN renal
EKVX NSCLC = test system: EKVX NSCLC
SK-MEL-28 melanoma = test system: SK-MEL-28 melanoma
SK-MEL-5 melanoma = test system: SK-MEL-5 melanoma
MDA-MB-435 = test system: MDA-MB-435
NCI-H460 lung = test system: NCI-H460 lung

Row | SMILES | TGI (A498 renal) [µM] | TGI (RXF 393 renal) [µM] | TGI (UACC-62 melanoma) [µM] | TGI (M14 melanoma) [µM] | TGI (ACHN renal) [µM] | TGI (EKVX NSCLC) [µM] | TGI (SK-MEL-28 melanoma) [µM] | TGI (SK-MEL-5 melanoma) [µM] | TGI (MDA-MB-435) [µM] | TGI (NCI-H460 lung) [µM] | GI50 (A498 renal) [µM] | GI50 (RXF 393 renal) [µM] | GI50 (UACC-62 melanoma) [µM] | GI50 (M14 melanoma) [µM] | GI50 (ACHN renal) [µM] | GI50 (EKVX NSCLC) [µM] | GI50 (SK-MEL-28 melanoma) [µM] | GI50 (SK-MEL-5 melanoma) [µM] | GI50 (MDA-MB-435) [µM] | GI50 (NCI-H460 lung) [µM]
1 | CC(=O)Nc1ccc(C(=O)N[C@@H]2C(=O)N3[C@@H]2SC(C)(C)[C@@H]3C(=O)O)cn1 | > 100 | > 100 | > 100 | > 100 | > 100 | > 100 | > 100 | > 100 | > 100 | > 100 |  |  |  |  |  |  |  |  |  | 
2 | O=Cc1ccc(C(F)(F)F)cc1.[C-]#[O+].[C-]#[O+].[C-]#[O+].[Cr] | > 100 | 66.6 | 37 | 37 | > 100 | 45 | > 100 | 28.3 | 45.7 | 40.3 | 21.4 | 18.6 | 13.3 | 12.9 | 30.2 | 16.3 | 63 | 12.6 | 14.3 | 13.3
3 | O=Nc1c(-c2cccc([N+](=O)[O-])c2)nc2ncccn12 | 38.3 | 3.01 | 29.3 | 26.8 | 23.2 | 43.3 | 30.2 | 32.2 | 36.4 | 54.8 | 17.4 |  | 14.4 | 12 | 8.73 | 18.3 | 15.2 | 15.2 | 13.7 | 17.8
4 | O=c1c2ccccc2nc(-c2ccc(Cl)cc2)n1O | > 100 | > 100 | > 100 | > 100 | 65 | 77.9 |  | > 100 | > 100 | > 100 |  |  |  |  |  |  |  |  |  | 
5 | NCCOc1ccccn1 | > 100 | > 100 | > 100 | > 100 | > 100 | > 100 | > 100 | > 100 | > 100 | > 100 |  |  |  |  |  |  |  |  |  | 
6 | COc1ccc2c(CNCCCCO)cc3cc4c(cc3c2c1)OCO4 | 2.98 | 2.49 | 3.29 | 4.68 | 3.7 | 11.4 | 11 | 2.13 | 3.54 |  | 1.16 | 0.68 | 1.59 | 2.07 | 0.891 | 2.78 | 4.93 | 0.818 | 0.982 | 
7 | Cn1c2ccccc2c2c3c(c4c5ccccc5n(CCCCCC#N)c4c21)C(=O)N(O)C3=O | 3.56 | 7.75 | 2.03 | > 100 | 1.19 | > 100 | 9.91 | 1.09 | 9.59 | 2.34 | 1.21 | 1.83 | 0.465 | 0.39 | 0.317 | 2.67 | 1.72 | 0.319 | 0.788 | 0.377
8 | CSC(=S)N/N=C(\C)c1ccccn1 | 6.33 | 3.1 | 0.955 | 2.33 | 11.8 | 17.5 | 17.5 | 1.04 | 16.6 | 1.23 | 0.458 | 0.261 | 0.181 | 0.0997 | 0.232 | 0.117 | 0.429 | 0.28 | 0.407 | 0.289
